We go through seven compounds from PubChem BioAssay AID324 (DTP/NCI, 2004).

Each structure is given as a SMILES string. Where “and” joins values, the source holds several entries; their conditions need not be identical. Equal values may be shown once. Inconclusive results and toxic doses are left out.

The test has as its system CD2F1 mice, AMSA-resistant P388 leukemia ip, median survival T/C. Briefly: NCI In Vivo Anticancer Drug Screen. Data for tumor model P388 Leukemia resistant to AMSA; NSC 249992 (intraperitoneal) in CD2F1 (CDF1) mice. The note with it: endpoint: median survival time, higher = longer survival. Here is the method:
The antitumor activity of compounds was measured in mice bearing transplantable tumors. Survival or tumor size were measured and the results are expressed as the measurement made in the treated group (T) divided by the measurement made in the vehicle treated control group (C). The tumor model used in this assay is P388 Leukemia resistant to AMSA; NSC 249992 (intraperitoneal) in CD2F1 (CDF1) mice

[1] abbreviates: dose: 4.32 mg/kg/injection, schedule: Q04DX003 (ip), vehicle: water.

`CCN(CC)C1CC(O[C@H]2C[C@](O)(C(C)=O)Cc3c(O)c4c(c(O)c32)C(=O)c2c(OC)cccc2C4=O)OC(C)C1O` (stereo partly specified): the T/C under setting [1] was 117 % of control and the T/C (dose: 20.0 mg/kg/injection, schedule: Q04DX003 (ip), vehicle: water) was 166 % of control.
On to `COc1c(O)c2c(c3cc(C(=O)N4CCc5c4c(O)c(OC)c4[nH]c(C(=O)N6CC7CC78C6=CC(=O)c6[nH]cc(C)c68)cc54)[nH]c13)CCN2C(N)=O` (stereo unspecified), for which the T/C is 118 % of control (dose: 0.04 mg/kg/injection, schedule: Q01DX001 (ip), vehicle: DMSO); 123 % of control (dose: 0.06 mg/kg/injection, schedule: Q01DX001 (ip), vehicle: DMSO); 109 % of control (dose: 0.18 mg/kg/injection, schedule: Q01DX001 (ip), vehicle: DMSO).
In the case of `CCN(CC)CCNc1ccc(C)c2sc3ccccc3c(=O)c12`, the T/C runs as follows: (dose: 16.2 mg/kg/injection, schedule: Q01DX005 (ip), vehicle: saline) 101 % of control; (dose: 19.4 mg/kg/injection, schedule: Q01DX005 (ip), vehicle: water) 92 % of control; (dose: 27.0 mg/kg/injection, schedule: Q01DX005 (ip), vehicle: saline) 101 % of control; (dose: 45.0 mg/kg/injection, schedule: Q01DX005 (ip), vehicle: saline) 99 % of control; (dose: 54.0 mg/kg/injection, schedule: Q01DX005 (ip), vehicle: water) 90 % of control; (dose: 75.0 mg/kg/injection, schedule: Q01DX005 (ip), vehicle: saline) 94 % of control. Further, the T/C (dose: 90.0 mg/kg/injection, schedule: Q01DX005 (ip), vehicle: water) is 89 % of control and the T/C (dose: 125.0 mg/kg/injection, schedule: Q01DX005 (ip), vehicle: saline) is 90 % of control.
For the compound `COc1cc(NS(C)(=O)=O)ccc1Nc1c2ccccc2nc2ccccc12`, the T/C (dose: 1.56 mg/kg/injection, schedule: Q04DX003 (ip), vehicle: other) is 93 % of control; the T/C (dose: 2.33 mg/kg/injection, schedule: Q01DX001 (ip), vehicle: other) was 111 % of control; the T/C (dose: 2.59 mg/kg/injection, schedule: Q01DX001 (ip), vehicle: other) was 105 % of control; the T/C (dose: 2.59 mg/kg/injection, schedule: Q04DX001 (ip), vehicle: other) is 105 % of control; the T/C (dose: 2.59 mg/kg/injection, schedule: Q04DX002 (ip), vehicle: other) was 111 % of control and 116 % of control; the T/C (dose: 2.59 mg/kg/injection, schedule: Q04DX003 (ip), vehicle: clinical formulation) was 106 % of control. The T/C reads like this: (dose: 2.59 mg/kg/injection, schedule: Q04DX003 (ip), vehicle: other) 98 % of control and 100 % of control and 106 % of control; (dose: 2.59 mg/kg/injection, schedule: Q04DX003 (ip), vehicle: water) 98 % of control and 100 % of control and 104 % of control; (dose: 3.89 mg/kg/injection, schedule: Q01DX001 (ip), vehicle: other) 109 % of control; (dose: 4.32 mg/kg/injection, schedule: Q01DX001 (ip), vehicle: other) 105 % of control; (dose: 4.32 mg/kg/injection, schedule: Q04DX001 (ip), vehicle: other) 105 % of control; (dose: 4.32 mg/kg/injection, schedule: Q04DX002 (ip), vehicle: other) 117 % of control and 120 % of control. For the same compound, the T/C runs as follows: (dose: 4.32 mg/kg/injection, schedule: Q04DX003 (ip), vehicle: clinical formulation) 123 % of control; (dose: 4.32 mg/kg/injection, schedule: Q04DX003 (ip), vehicle: other) 91 % of control and 101 % of control and 108 % of control; under setting [1], 100 % of control and 101 % of control and 105 % of control; (dose: 6.48 mg/kg/injection, schedule: Q01DX001 (ip), vehicle: other) 104 % of control; (dose: 7.2 mg/kg/injection, schedule: Q01DX001 (ip), vehicle: other) 101 % of control; (dose: 7.2 mg/kg/injection, schedule: Q04DX001 (ip), vehicle: other) 101 % of control. Further, the T/C was 101 % of control and 114 % of control (dose: 7.2 mg/kg/injection, schedule: Q04DX002 (ip), vehicle: other); 124 % of control (dose: 7.2 mg/kg/injection, schedule: Q04DX003 (ip), vehicle: clinical formulation); 97 % of control and 110 % of control and 89 % of control (dose: 7.2 mg/kg/injection, schedule: Q04DX003 (ip), vehicle: other); 102 % of control and 107 % of control and 113 % of control (dose: 7.2 mg/kg/injection, schedule: Q04DX003 (ip), vehicle: water); 120 % of control (dose: 10.0 mg/kg/injection, schedule: Q04DX003 (ip), vehicle: saline with Tween-80); 100 % of control (dose: 10.8 mg/kg/injection, schedule: Q01DX001 (ip), vehicle: other). Also, the T/C reads like this: (dose: 12.0 mg/kg/injection, schedule: Q01DX001 (ip), vehicle: other) 99 % of control; (dose: 12.0 mg/kg/injection, schedule: Q04DX001 (ip), vehicle: other) 99 % of control; (dose: 12.0 mg/kg/injection, schedule: Q04DX002 (ip), vehicle: other) 119 % of control and 120 % of control; (dose: 12.0 mg/kg/injection, schedule: Q04DX003 (ip), vehicle: other) 90 % of control and 103 % of control (2×); (dose: 12.0 mg/kg/injection, schedule: Q04DX003 (ip), vehicle: water) 102 % of control; (dose: 18.0 mg/kg/injection, schedule: Q01DX001 (ip), vehicle: other) 110 % of control. For the same compound, the T/C by setting is: (dose: 20.0 mg/kg/injection, schedule: Q01DX001 (ip), vehicle: other) 90 % of control; (dose: 20.0 mg/kg/injection, schedule: Q04DX001 (ip), vehicle: other) 90 % of control; (dose: 20.0 mg/kg/injection, schedule: Q04DX002 (ip), vehicle: other) 92 % of control and 111 % of control; (dose: 20.0 mg/kg/injection, schedule: Q04DX003 (ip), vehicle: other) 106 % of control; (dose: 30.0 mg/kg/injection, schedule: Q01DX001 (ip), vehicle: other) 105 % of control.
`COc1cc(NS(C)(=O)=O)ccc1Nc1c2ccccc2nc2cc(C(F)(F)F)c(N)cc12`: the T/C by setting is: (dose: 13.0 mg/kg/injection, schedule: Q04DX003 (ip), vehicle: distilled water + Tween-80) 106 % of control; (dose: 21.6 mg/kg/injection, schedule: Q04DX003 (ip), vehicle: distilled water + Tween-80) 103 % of control; (dose: 36.0 mg/kg/injection, schedule: Q04DX003 (ip), vehicle: distilled water + Tween-80) 104 % of control; (dose: 60.0 mg/kg/injection, schedule: Q04DX003 (ip), vehicle: distilled water + Tween-80) 108 % of control; (dose: 64.8 mg/kg/injection, schedule: Q04DX002 (ip), vehicle: water) 114 % of control; (dose: 100.0 mg/kg/injection, schedule: Q04DX003 (ip), vehicle: distilled water + Tween-80) 103 % of control.
Consider `CO[C@H]1C[C@](C)(O)Cc2cc3c(c(O)c21)C(=O)c1c(O)cc2c(c1C3=O)O[C@@H]1O[C@@]2(C)[C@H](O)[C@@H](N(C)C)[C@@H]1O`, for which the T/C was 111 % of control (dose: 6.48 mg/kg/injection, schedule: Q04DX003 (ip), vehicle: other); 114 % of control (dose: 10.8 mg/kg/injection, schedule: Q04DX003 (ip), vehicle: other); 110 % of control (dose: 18.0 mg/kg/injection, schedule: Q04DX003 (ip), vehicle: other); 102 % of control (dose: 30.0 mg/kg/injection, schedule: Q04DX003 (ip), vehicle: other).
In the case of `C[n+]1ccc(Nc2ccc(NC(=O)c3ccc(Nc4cc[n+](C)c5ccc(N)cc45)cc3)cc2)cc1`, the T/C reads like this: (dose: 1.73 mg/kg/injection, schedule: Q04DX003 (ip), vehicle: water) 155 % of control; (dose: 4.8 mg/kg/injection, schedule: Q04DX003 (ip), vehicle: water) 154 % of control; (dose: 8.0 mg/kg/injection, schedule: Q04DX003 (ip), vehicle: water) 182 % of control.
